Read-outs that look alike come from different tables or passages of the source.
How the values were obtained:
Test in all cases: Herbicidal activity for paddy test
Assay type in all cases: in vivo
ECHOR = conditions: for pest or weed control at 2 g/ha: 0.002 kg/ha; for pest or weed control at 8 g/ha: 0.008 kg/ha; for pest or weed control at 31 g/ha: 0.031 kg/ha; for pest or weed control at 125 g/ha: 0.125 kg/ha; for pest or weed control at 500 g/ha: 0.500 kg/ha
From the text: (§1) The sterilized sandy loam soil is filled in test pot having a surface area of 348 cm^2 for upland test conditions or 115 cm^2 for paddy test species were planted in furrows.
(§2) The herbicidal activity data were taken visually by percent control, wherein 0 signifies no herbicidal effect and 100 signifies complete kill.

MOOVA = conditions: for pest or weed control at 2 g/ha: 0.002 kg/ha; for pest or weed control at 8 g/ha: 0.008 kg/ha; for pest or weed control at 31 g/ha: 0.031 kg/ha; for pest or weed control at 125 g/ha: 0.125 kg/ha; for pest or weed control at 500 g/ha: 0.500 kg/ha
From the text: as §1, §2

ORYSA = conditions: for plant injury at 2 g/ha: 0.002 kg/ha; for plant injury at 8 g/ha: 0.008 kg/ha; for plant injury at 31 g/ha: 0.031 kg/ha; for plant injury at 125 g/ha: 0.125 kg/ha; for plant injury at 500 g/ha: 0.500 kg/ha
From the text: as §1, §2

SAGPY = conditions: for pest or weed control at 2 g/ha: 0.002 kg/ha; for pest or weed control at 8 g/ha: 0.008 kg/ha; for pest or weed control at 31 g/ha: 0.031 kg/ha; for pest or weed control at 125 g/ha: 0.125 kg/ha; for pest or weed control at 500 g/ha: 0.500 kg/ha
From the text: as §1, §2

SCPJU = conditions: for pest or weed control at 2 g/ha: 0.002 kg/ha; for pest or weed control at 8 g/ha: 0.008 kg/ha; for pest or weed control at 31 g/ha: 0.031 kg/ha; for pest or weed control at 125 g/ha: 0.125 kg/ha; for pest or weed control at 500 g/ha: 0.500 kg/ha
From the text: as §1, §2

[1] = 3 Leaf, read-out: Herbicidal activity, ORYSA (3 Leaf)
[2] = seed, read-out: Herbicidal activity, ORYSA (seed)

Structure (SMILES) | pest or weed control at 2 g/ha (ECHOR) [%] | pest or weed control at 8 g/ha (ECHOR) [%] | pest or weed control at 31 g/ha (ECHOR) [%] | pest or weed control at 125 g/ha (ECHOR) [%] | pest or weed control at 500 g/ha (ECHOR) [%] | pest or weed control at 2 g/ha (MOOVA) [%] | pest or weed control at 8 g/ha (MOOVA) [%] | pest or weed control at 31 g/ha (MOOVA) [%] | pest or weed control at 125 g/ha (MOOVA) [%] | pest or weed control at 500 g/ha (MOOVA) [%] | plant injury at 2 g/ha (ORYSA; [1]) [%] | plant injury at 8 g/ha (ORYSA; [1]) [%] | plant injury at 31 g/ha (ORYSA; [1]) [%] | plant injury at 125 g/ha (ORYSA; [1]) [%] | plant injury at 500 g/ha (ORYSA; [1]) [%] | plant injury at 2 g/ha (ORYSA; [2]) [%] | plant injury at 8 g/ha (ORYSA; [2]) [%] | plant injury at 31 g/ha (ORYSA; [2]) [%] | plant injury at 125 g/ha (ORYSA; [2]) [%] | plant injury at 500 g/ha (ORYSA; [2]) [%] | other results
CCC(=NOC)C1=C(O)CC(c2c(C)c(C)c3c(c2C)CC(C)(CC)C3)CC1=O (stereo not drawn) [Compound 11] | 0 | 30 | 70 | 100 | 100 | 0 | 0 | 0 | 30 | 50 | 0 | 0 | 0 | 30 | 80 | 0 | 0 | 30 | 100 | 100 | pest or weed control at 2 g/ha (SAGPY): 0%; pest or weed control at 8 g/ha (SAGPY): 0%; pest or weed control at 31 g/ha (SAGPY): 0%; pest or weed control at 125 g/ha (SAGPY): 0%; pest or weed control at 500 g/ha (SAGPY): 0%; pest or weed control at 2 g/ha (SCPJU): 0%; pest or weed control at 8 g/ha (SCPJU): 0%; pest or weed control at 31 g/ha (SCPJU): 0%; pest or weed control at 125 g/ha (SCPJU): 0%; pest or weed control at 500 g/ha (SCPJU): 0%
C=C(Cl)CON=C(CC)C1=C(O)CC(c2c(C)c(C)c3c(c2C)CC(C)(CC)C3)CC1=O (stereo not drawn) [Compound 15] | 0 | 30 | 30 | 100 | 100 | 0 | 0 | 0 | 0 | 30 | 0 | 0 | 0 | 0 | 30 | 0 | 0 | 0 | 40 | 100 | pest or weed control at 2 g/ha (SAGPY): 0%; pest or weed control at 8 g/ha (SAGPY): 0%; pest or weed control at 31 g/ha (SAGPY): 0%; pest or weed control at 125 g/ha (SAGPY): 0%; pest or weed control at 500 g/ha (SAGPY): 0%; pest or weed control at 2 g/ha (SCPJU): 0%; pest or weed control at 8 g/ha (SCPJU): 0%; pest or weed control at 31 g/ha (SCPJU): 0%; pest or weed control at 125 g/ha (SCPJU): 0%; pest or weed control at 500 g/ha (SCPJU): 0%
CCON=C(CC)C1=C(O)CC(c2c(C)c3c(c(C)c2Cl)CC(C)(C)C3)CC1=O (stereo not drawn) [Compound 22] | 0 | 95 | 100 | 100 | 100 | 0 | 0 | 0 | 0 | 60 | 0 | 0 | 0 | 20 | 100 | 0 | 0 | 100 | 100 | 100 | pest or weed control at 2 g/ha (SAGPY): 0%; pest or weed control at 8 g/ha (SAGPY): 0%; pest or weed control at 31 g/ha (SAGPY): 0%; pest or weed control at 125 g/ha (SAGPY): 0%; pest or weed control at 500 g/ha (SAGPY): 0%; pest or weed control at 2 g/ha (SCPJU): 0%; pest or weed control at 8 g/ha (SCPJU): 0%; pest or weed control at 31 g/ha (SCPJU): 0%; pest or weed control at 125 g/ha (SCPJU): 0%; pest or weed control at 500 g/ha (SCPJU): 0%
CCCC(=NOCC=CCl)C1=C(O)CC(c2c(C)c(C)c3c(c2C)CC(C)(C)C3)CC1=O (stereo not drawn) [Compound 9] | 0 | 50 | 100 | 100 | 100 | 0 | 0 | 0 | 0 | 0 | 0 | 0 | 0 | 0 | 0 | 0 | 0 | 0 | 70 | 100 | pest or weed control at 2 g/ha (SAGPY): 0%; pest or weed control at 8 g/ha (SAGPY): 0%; pest or weed control at 31 g/ha (SAGPY): 0%; pest or weed control at 125 g/ha (SAGPY): 0%; pest or weed control at 500 g/ha (SAGPY): 0%; pest or weed control at 2 g/ha (SCPJU): 0%; pest or weed control at 8 g/ha (SCPJU): 0%; pest or weed control at 31 g/ha (SCPJU): 0%; pest or weed control at 125 g/ha (SCPJU): 0%; pest or weed control at 500 g/ha (SCPJU): 0%
CCCC(=NOCC=CCl)C1=C(O)CC(c2c(C)c(C)c3c(c2C)CC(C)(CC)C3)CC1=O (stereo not drawn) [Compound 19] | 0 | 50 | 80 | 100 | 100 | 0 | 0 | 0 | 0 | 0 | 0 | 0 | 0 | 0 | 0 | 0 | 0 | 0 | 0 | 30 | pest or weed control at 2 g/ha (SAGPY): 0%; pest or weed control at 8 g/ha (SAGPY): 0%; pest or weed control at 31 g/ha (SAGPY): 0%; pest or weed control at 125 g/ha (SAGPY): 0%; pest or weed control at 500 g/ha (SAGPY): 0%; pest or weed control at 2 g/ha (SCPJU): 0%; pest or weed control at 8 g/ha (SCPJU): 0%; pest or weed control at 31 g/ha (SCPJU): 0%; pest or weed control at 125 g/ha (SCPJU): 0%; pest or weed control at 500 g/ha (SCPJU): 0%
CCC(=NOCC=CCl)C1=C(O)CC(c2c(C)c(C)c3c(c2C)CC(C)(CC)C3)CC1=O (stereo not drawn) [Compound 14] | 30 | 70 | 100 | 100 | 100 | 0 | 0 | 0 | 30 | 100 | 0 | 0 | 0 | 0 | 40 | 0 | 0 | 0 | 40 | 100 | pest or weed control at 2 g/ha (SAGPY): 0%; pest or weed control at 8 g/ha (SAGPY): 0%; pest or weed control at 31 g/ha (SAGPY): 0%; pest or weed control at 125 g/ha (SAGPY): 0%; pest or weed control at 500 g/ha (SAGPY): 30%; pest or weed control at 2 g/ha (SCPJU): 0%; pest or weed control at 8 g/ha (SCPJU): 0%; pest or weed control at 31 g/ha (SCPJU): 0%; pest or weed control at 125 g/ha (SCPJU): 30%; pest or weed control at 500 g/ha (SCPJU): 90%
CCCC(=NOC)C1=C(O)CC(c2c(C)c(C)c3c(c2Cl)CC(C)(C)C3)CC1=O (stereo not drawn) [Compound 42] | 0 | 0 | 80 | 100 | 100 | 0 | 0 | 0 | 0 | 0 | 0 | 0 | 0 | 0 | 0 | 0 | 0 | 20 | 100 | 100 | pest or weed control at 2 g/ha (SAGPY): 0%; pest or weed control at 8 g/ha (SAGPY): 0%; pest or weed control at 31 g/ha (SAGPY): 0%; pest or weed control at 125 g/ha (SAGPY): 0%; pest or weed control at 500 g/ha (SAGPY): 0%; pest or weed control at 2 g/ha (SCPJU): 0%; pest or weed control at 8 g/ha (SCPJU): 0%; pest or weed control at 31 g/ha (SCPJU): 0%; pest or weed control at 125 g/ha (SCPJU): 0%; pest or weed control at 500 g/ha (SCPJU): 0%

Reference: US6096930A, “Herbicidal cyclohexane-1,3-dione derivatives and their preparation process” (Korea Research Institute of Chemical Technology, priority 1994, dated 2000)
